The text below walks through data of US20260200882A1, “NOVEL FIVE-MEMBERED HETEROCYCLE SUBSTITUTED STYRENE DERIVATIVE, AND PREPARATION METHOD THEREFOR AND USE THEREOF” (Guangzhou Nanocrystal Biotechnology Co., Ltd., priority 2022, published 2026).

Each structure is given as a SMILES string.

In assay [1] the test system is Mouse macrophages (RAW264.7). The assay can be described thus: Toxicity to macrophages by MTT method. It is filed as cell-based. The conditions noted are these: RAW264.7, MTT, 48 h culture with compound. As for the experimental part: (1) the Toxicity to Macrophages was Tested by MTT Method:
Mouse macrophages (RAW264.7) were taken, inoculated into 96-well plates ([…]) at a concentration of 3×10^4/mL and cultured in an incubator of 5% CO2 at 37° C. for 18 h. After the cells adhered to the wall, the supernate was discarded and compounds of different concentrations were added to continue the culture for 48 h. 0.5 mg/mL of MTT was added. After continued culture for 4 h, […] of DMSO was added to each well, and then shaken on a shaker for 10 min. Absorbance (OD value) at 570 nm was measured by a microplate reader, and IC50 was calculated by Prism software.
Background: Formazan colour is commonly taken as a measure of viable cells.

Assay [2] relates to LPS-induced NO production in macrophages (RAW264.7). Put plainly: Inhibition of LPS-induced NO production in macrophages. It is filed as cell-based, mouse. Also noted: dose or concentration left out as unconfirmed. The conditions noted are these: LPS-induced RAW264.7, 24 h. As for the experimental part: In this test example, the styrene derivatives prepared by embodiments 2-20 were tested for their toxicities to mouse macrophages (RAW264.7). The nitric oxide (NO) inhibition assays using lipopolysaccharide (LPS)-induced RAW264.7 cells were also performed to evaluate their anti-inflammatory activities (Test methods refer to Zhou W. et al. Biomed Pharmacother 2020, 131:110696.).
(2) Inhibition of LPS-Induced NO Production Activity in Macrophages was Tested (the Test Method Refers to Biomed Pharmacother. 2020 November; 131:110696):
Mouse macrophages (RAW264.7) were taken, inoculated into 96-well plates ([…]) at a concentration of 5×10^5/mL and cultured in a 5% CO2 incubator at 37° C. for 18 h. Then, the compound (final concentration: […]) and LPS (final concentration: 5 µg/mL) were added into a cell culture solution and cultured at 37° C. for 24 h. Then, the supernatant of the cell culture solution was taken and placed into a new 96-well plate by 50 µL per well; and then 50 µL of solution A and 50 µL of solution B of a Beyotime NO kit were added.
After culturing in the incubator at 37° C. for 10 min, the absorbance (OD value) at 540 nm was tested.

On to `CC(C)c1c(O)cc(/C=C/c2ccoc2)cc1O` [No 2], for which the concentration for half-maximal inhibition (IC50) (in general, the point on the concentration scale where inhibition reaches its midpoint) in assay [1] (Mus musculus) was above 1000 nM. The “Inhibitory activity against nitric oxide production (%)” value (from here on “Inhibitory activity … (%)”) in assay [2] is listed as below 50%.

For `CC(C)c1c(O)cc(/C=C/c2cncs2)cc1O` [No 3], the IC50 in assay [1] (Mus musculus) was above 1000 nM. Further, the “Inhibitory activity … (%)” value in assay [2] was above 50%.

As for `CC(C)c1c(O)cc(/C=C/c2cscn2)cc1O` [No 4], the IC50 in assay [1] (Mus musculus) was above 1000 nM. Further, in assay [2], the “Inhibitory activity … (%)” value was below 50%.

In the case of `Oc1cc(/C=C/c2ccsc2)cc(O)c1C1CC1` [No 5], in assay [1] (Mus musculus), the IC50 was above 1000 nM. Further, the “Inhibitory activity … (%)” value in assay [2] is on record as below 50%.

As for `Oc1cc(/C=C/c2ccoc2)cc(O)c1C1CC1` [No 6], the IC50 in assay [1] (Mus musculus) was above 1000 nM. Further, in assay [2], the “Inhibitory activity … (%)” value was below 50%.

Turning to `Oc1cc(/C=C/c2ccsc2)cc(O)c1C1=CCCC1` [No 7], the IC50 in assay [1] (Mus musculus) is above 1000 nM. Besides, the “Inhibitory activity … (%)” value in assay [2] was below 50%.

For `Oc1cc(/C=C/c2cscn2)cc(O)c1C1=CCCC1` [No 9], the IC50 in assay [1] was above 1000 nM. For the same compound, in assay [2], the “Inhibitory activity … (%)” value was below 50%.

`Oc1cc(/C=C/c2cncs2)cc(O)c1C1=CCCC1` [No 10]: the IC50 in assay [1] is above 1000 nM. The “Inhibitory activity … (%)” value in assay [2] is below 50%.

For the compound `Oc1cc(/C=C/c2ccsc2)cc(O)c1C1CCCC1` [No 11], the IC50 in assay [1] (Mus musculus) was above 1000 nM. The “Inhibitory activity … (%)” value in assay [2] is recorded as below 50%.

Take `Oc1cc(/C=C/c2cscn2)cc(O)c1C1CCCC1` [No 12]: the IC50 in assay [1] (Mus musculus) was above 1000 nM. In assay [2], the “Inhibitory activity … (%)” value is listed as below 50%.

With `Oc1cc(/C=C/c2ccoc2)cc(O)c1Br` [No 13], in assay [1] (Mus musculus), the IC50 was above 1000 nM. The “Inhibitory activity … (%)” value in assay [2] is below 50%.

For the compound `C=C(C)c1c(O)cc(/C=C/c2cscn2)cc1O` [No 16], the IC50 in assay [1] (Mus musculus) was above 1000 nM. In addition, the “Inhibitory activity … (%)” value in assay [2] is below 50%.

Regarding `C=C(C)c1c(O)cc(/C=C/c2cncs2)cc1O` [No 17], the IC50 in assay [1] (Mus musculus) is above 1000 nM. For the same compound, the “Inhibitory activity … (%)” value in assay [2] is given as below 50%.

In the case of `COc1cc(/C=C/c2ccsc2)cc(O)c1C1CC1` [No 18], the IC50 in assay [1] (Mus musculus) was above 1000 nM. The “Inhibitory activity … (%)” value in assay [2] is given as above 50%.

In the case of `COc1cc(/C=C/c2ccsc2)cc(O)c1Br` [No 19], the half-inhibitory concentration (IC50) in assay [1] (Mus musculus) was above 1000 nM. Also, in assay [2], the “Inhibitory activity … (%)” value is reported as above 50%.

With `COc1cc(/C=C/c2ccoc2)cc(O)c1C(C)C` [No 20], the IC50 in assay [1] was above 1000 nM. Besides, the “Inhibitory activity … (%)” value in assay [2] was above 50%.
